Experimental data: US9573882B2, “Use of 4-[ethyl(dimethyl)ammonio]butanoate in the treatment of cardiovascular disease” (JSC GRINDEKS, priority 2009, dated 2017)

Legend:
[1] = tested on: isolated rat heart infarction model; assay: Isolated rat heart infarction study after daily p.o. treatment; assay type: in vivo, Wistar rats; details: for Infarct size, % of control: isolated rat heart, 60 min occlusion, 150 min reperfusion, mean ± s.e.m. of 9-10 animals; for decrease of infarct size: versus control
Method: Fifty male, 10 weeks old Wistar rats weighing 200-250 g were housed under standard conditions (21-23° C., 12 h light-dark cycle) with unlimited access to food (R3 diet, Lactamin AB, Sweden) and water.
Rats were adapted to local conditions for two weeks before the start of treatment. Meldonium dihydrate at a dose of 5 mg/kg or 100 mg/kg, gamma-butyrobetaine at a dose of 5 mg/kg and EG at doses of 20 mg/kg were administered p.o. daily for 8 weeks. Control rats received water.
Isolated Rat Heart Infarction Study The isolated rat heart experiment was performed essentially as described earlier (Liepinsh et al., J. Cardiovasc. Pharmacol. 2006; 48(6):314-9). Twenty-four hours after the last drug administration hearts were excised and retrogradely perfused via the aorta at a constant pressure with oxygenated Krebs-Henseleit buffer at 37° C. The heart rate, left ventricle end-diastolic pressure and left ventricle developed pressure were continuously recorded. Coronary flow was measured using an ultrasound flow detector (HSE) and the PowerLab 8/30 system from ADInstruments. The hearts were perfused for 20 min to stabilize the hemodynamic functions and then occlusion was performed for 60 min by constricting threads through a plastic tube. Successful occlusion was confirmed by a coronary flow decrease of about 40 percent. Reperfusion was achieved by releasing the threads. At the end of the 150-min reperfusion period, the risk zone was delineated with 0.1% methylene blue. The hearts were then sectioned transversely from the apex to the base in five slices 2 mm in thickness and incubated in 1% triphenyltetrazolium chloride in phosphate buffer (pH 7.4, 37° C.) for 10 min to stain viable tissue red and necrotic tissue white. Computerized planemetric analysis of Sony A900 photographs was performed using Image-Pro Plus 6.3 software to determine the area at risk and area of necrosis expressed as a % of the left ventricle. The obtained values were then used to calculate the infarct size (IS) as a % of risk area according to the formula: Infarct Size=Area of Necrosis/Area at Risk×100%.
The anti-infarction effect of examined substances was investigated in an isolated rat heart infarction model. During occlusion of left coronary artery, the coronary flow in all experimental groups was decreased for 40% (from 11 ml/min 30 to 7 ml/min). Moreover, the drop of developed left ventricular pressure for 50% was observed. […] In reperfusion stage, coronary flow, developed left ventricular pressure, ±dp/dt values were recovered till about 80% of control level. There were no significant differences between control and treatment groups.
Effects of Meldonium dihydrate (5 mg/kg un 100 mg/kg), gamma-butyrobetaine (5 mg/kg) and 4-[ethyl(dimethyl)ammonio]butanoate (EG) (5 mg/kg) after […] of treatment on infarct size in the isolated rat heart infarction experiment are presented in Table 1.

[2] = s.c.; cited from earlier work

SMILES | Infarct size, % of control ([1]; 5 mg/kg p.o. daily) | decrease of infarct size ([1]; dose of 5 mg/kg) | therapeutical effect on infarct size ([1]; dose of 5 mg/kg) | LD50 [2] | Infarct size, % of control ([1]; 100 mg/kg p.o. daily) | decrease of infarct size ([1]; 100 mg/kg)
CC[N+](C)(C)CCCC(=O)[O-] [EG, 4-[ethyl(dimethyl)ammonio]butanoate] | 59 ± 6 % of control | 41% |  |  |  | 
C[N+](C)(C)CCCC(=O)[O-] [Gamma-butyrobetaine] | 90 ± 5 % of control |  | no therapeutical effect | > 7000 mg/kg |  | 
C[N+](C)(C)NCCC(=O)[O-] [Meldonium dihydrate, 3-(2,2,2-Trimethylhydrazinium)propionate dihydrate] | 95 ± 9 % of control | 5% |  |  | 76 ± 10 % of control | 24%
